From patent US11104674B2 (Hoffmann-La Roche Inc., priority 2016, dated 2021)

What was measured:
HBsAg = HBsAg assay (chemiluminescence immunoassay of secreted HBsAg); format: cell-based, HBV; details: HepG2.2.15 cells, CLIA of culture supernatant
Procedure, shortened: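 HepG2.2.15 cells, in duplicate, treated with three-fold serial compound dilutions (1% DMSO final); secreted HBsAg in supernatant quantified by chemiluminescence immunoassay; IC50 is the concentration reducing HBsAg secretion by 50% versus the DMSO control.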

HBV DNA = HBV DNA assay (real-time qPCR of extracellular HBV DNA); format: cell-based; details: Hepatitis B virus, 144 h; Anti HBV DNA production activity in HepG2.2.15 cells; supernatant collected six days after treatment
Description: HepG2.2.15 cells (Acs et al. Proc Natl Acad Sci USA, 84, (1987), 4641-4), a constitutively HBV-expressing cell line were cultured in DMEM+Glutamax-I medium (Invitrogen, Carlsbad, Calif., USA), supplemented with 10% fetal bovine serum (Invitrogen) and G418 (Invitrogen) at a final concentration of 200 mg/L and maintained in 5% CO2 at 37° C.
The assay employs real-time qPCR (TaqMan) to directly measure extracellular HBV DNA copy number in the cell supernatant. HepG2.2.15 cells were plated in 96-well microtiter plates before treatment with complete medium (DMEM, Glutamax, 10% FBS, 1% Penicillin/Streptomycin, 250 μg/mL Genetycin, final DMSO concentration is 1%/o). Only the interior wells were utilized to reduce “edge effects” observed during cell culture, the exterior wells were filled with complete medium to help minimize sample evaporation. The HepG2.2.15 cells were treated 1 h later with various concentrations of a test compound in duplicate (top concentration used at 5 μM, 2 μM or 0.5 μM according to the HBsAg IC50 observed, with ⅓ successive dilutions (total of 10 dilutions). Six days following the initial administration of the test compound, the cell culture supernatant was collected; DNA extraction was performed by automated system (Magnapure) and then used in a real-time qPCR/TaqMan assay to determine HBV DNA copy numbers. Antiviral activity was calculated from the reduction in HBV DNA levels (IC50).
The compounds of the present invention were tested for their capacity to inhibit HBV DNA as described herein.

[1] = Hepatitis B virus, HepG2.2.15, HBsAg secretion

Compound	IC50 (HBsAg; [1]) [nM]	IC50 (HBV DNA) [nM]	IC50 (HBsAg; HBsAg secretion) [nM]
CC1c2cnc(-c3ncccn3)nc2CCN1c1cc(N2CC(F)C2)cc(F)n1 (stereo not drawn) [Example 123, 6-[6-fluoro-4-(3-fluoroazetidin-1-yl)-2-pyridyl]-5-methyl-2-pyrimidin-2-yl-7,8-dihydro-5H-pyrido[4,3-d]pyrimidine]	12	0.43	–
COC1CN(c2cc(F)nc(N3CCc4nc(-c5ncccn5)ncc4C3C)c2)C1 (stereo not drawn) [Example 112, 6-[6-fluoro-4-(3-methoxyazetidin-1-yl)-2-pyridyl]-5-methyl-2-pyrimidin-2-yl-7,8-dihydro-5H-pyrido[4,3-d]pyrimidine]	6	0.6	–
C[C@@H]1c2cnc(-c3ncccn3)nc2CCN1c1cc(N2CCN(S(C)(=O)=O)CC2)cc(F)n1 [Example 97, (−)-6-[6-Fluoro-4-(4-methylsulfonylpiperazin-1-yl)-2-pyridyl]-5-methyl-2-pyrimidin-2-yl-7,8-dihydro-5H-pyrido[4,3-d]pyrimidine]	–	1.9	3
COC1CCN(c2cc(F)nc(N3CCc4nc(-c5ncccn5)ncc4C3C)c2)C1 (stereo not drawn) [Example 20, 6-[6-fluoro-4-(3-methoxypyrrolidin-1-yl)-2-pyridyl]-5-methyl-2-pyrimidin-2-yl-7,8-dihydro-5H-pyrido[4,3-d]pyrimidine]	10	0.15	–
CC1c2cnc(-c3ncccn3)nc2CCN1c1cc(N2CCCS2(=O)=O)cc(F)n1 (stereo not drawn) [Example 115, 2-[2-Fluoro-6-(5-methyl-2-pyrimidin-2-yl-7,8-dihydro-5H-pyrido[4,3-d]pyrimidin-6-yl)-4-pyridyl]-1,2-thiazolidine1,1-dioxide]	4	3.2	–
CCS(=O)(=O)N1CCN(c2cc(F)nc(N3CCc4nc(-c5ncccn5)ncc4C3C)c2)CC1 (stereo not drawn) [Example 90, 6-[4-(4-ethylsulfonylpiperazin-1-yl)-6-fluoro-2-pyridyl]-5-methyl-2-pyrimidin-2-yl-7,8-dihydro-5H-pyrido[4,3-d]pyrimidine]	5	1.1	–
